A short description of the data set: gradient 5% acetonitrile 3 min, to 50% in 2 min, to 85% in 15 min, held 3 min, 100 µL/min. The conditions noted are these: column: Zorbax Extend-C18 2.1 x 50 mm; eluents: water / acetonitrile, 0.1% formic acid. An outline of the steps: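 The system's dead and dwell volumes were 40 μL and 900 μL, with a Zorbax Extend-C18 column (2.1 × 50 mm, 1.8 μm) run at 100 μL/min in water and acetonitrile containing 0.1% formic acid each. Pure standards were analyzed in mixtures of ~100 molecules by HPLC–quadrupole time-of-flight mass spectrometry in positive and negative ionization mode. Retention time was assigned from computationally picked, manually inspected adduct peaks.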
For the molecule `Cc1ccc(CNc2cc(-n3ccnc3)ncn2)cc1C`, the RP-LC retention time was determined as 682 s.
Then `CCc1nnc(-c2ccc3ccn(CC(=O)NCc4ccccn4)c3c2)o1`, with 629 s; and `CCN1C(=O)c2ccccc2Oc2ccc(C(=O)NCCc3cccs3)cc21`, with 944 s.
With `Cc1ccc(S(=O)(=O)Nc2cc(-c3cn4ccc(C)cc4n3)ccc2C)cc1`, the RP-LC retention time was 696 s.
`CN(CC(=O)N1CCN(c2ccc(Cl)cc2)CC1)S(=O)(=O)c1ccc2c(c1)CCCC(=O)N2` came in with an RP-LC retention time of 828 s.
In turn, `COc1ccc(N2CCN(c3nc(C(=O)NCCN(C)C)cs3)CC2)cc1` returned an RP-LC retention time of 618 s.
`O=C(NCCCc1ccccc1)c1n[nH]c2c1CN(C(=O)C1CC1)CC2` returned an RP-LC retention time of 789 s.
In the case of `O=C(c1ccc2c(c1)nnn2CCN1CCOCC1)N1CCSCC1`, the RP-LC retention time turned out to be 564 s.
Then `Cc1cc(C)c(S(=O)(=O)N(CCN2CCCCC2C)CC(=O)N2CCNCC2)c(C)c1` (configuration not stated), with 601 s; and `CCNC(=O)c1c(C)c(-c2ccccc2)n(C)c1C`, with 1010 s.
In turn, `Cc1ccc(Nc2c(-c3ccc(O)cc3)nc3ncccn23)cc1Cl` gave an RP-LC retention time of 690 s.
Then `Cn1cc(-c2cc3n(n2)CCC(=O)N3CCCC(=O)Nc2ccccc2F)c2ccccc21`, with 844 s.
`COc1cc(OC)c(NC(=O)C2CC(=O)N(c3cccc(NC(C)=O)c3)C2)cc1Cl` (configuration not stated): the RP-LC retention time stood at 712 s.
For the molecule `COCCn1c(C2CCN(S(=O)(=O)c3ccc(F)c(Cl)c3)C2)nc2ccncc21` (configuration not stated), the RP-LC retention time amounted to 590 s.
Then `Cc1ccc2c(=O)c3c([nH]c2c1C)CCN(CC(=O)Nc1cccc(Cl)c1C)C3`, with 661 s; and `C=CCNC(=O)c1cnn(-c2cc(-c3nc(CC)no3)ccn2)c1C`, with 845 s; and `CCc1ccc(CNC(=O)CC2CCN(C(=O)c3[nH]c(C)c(C)c3C)CC2)cc1`, with 898 s.
As for `CCc1nn(CC(=O)N2CCC(C(N)=O)CC2)c(=O)c2cc3sccc3n12`, the RP-LC retention time was 614 s.
Take `CCCNC(=O)c1cc(-c2ccncc2)cn1Cc1ccccc1C`: the RP-LC retention time came to 690 s.
Regarding `CCc1csc(-c2ccc(N3CCN(C(=O)c4ccc(Cl)nc4)CC3)nc2)n1`, the RP-LC retention time came out at 832 s.
The molecule `Cn1cnc2c(C(=O)NC3CCCCC3)nn(-c3ccccc3)c2c1=O` registered an RP-LC retention time of 855 s.
Take `COc1ccc(-c2noc(Cc3nnc(-c4cccc(F)c4)o3)n2)cc1`: the RP-LC retention time worked out at 1020 s.
For the molecule `Cc1oc(C2CCN(S(=O)(=O)c3ccc(F)c(F)c3)CC2)nc1C(=O)N1CCCC1`, the RP-LC retention time was 936 s.
As to `CNC(=O)CSc1nnc(N2CCN(C(=O)c3cc(=O)c4ccccc4o3)CC2)s1`, the RP-LC retention time is 599 s.
The molecule `CC1CCN(S(=O)(=O)c2ccc(-c3nnc(C(=O)NC4CCCCC4)o3)cc2)CC1` came in with an RP-LC retention time of 1120 s.
`COc1ccc(C(=O)Nc2nc(-c3ccc4c(c3)NC(=O)C(C)O4)c(C)s2)cc1` (configuration not stated) had an RP-LC retention time of 924 s.
`O=C(c1ccoc1)N1CC(N(Cc2ccncc2)CC2CC2)C1`: the RP-LC retention time is 593 s.
Regarding `O=C(Cn1c(=O)c2cccn2c2ccc(F)cc21)NCCc1c[nH]c2ccccc12`, the RP-LC retention time was found to be 834 s.
Then `CC1CCN(c2cc(-c3noc(C(=O)N4CCN(C5CCCCC5)CC4)n3)ccn2)CC1`, with 647 s; and `Cc1cccc(-c2noc(CN3C(=O)COc4ccc(Cl)cc43)n2)c1`, with 1160 s; and `O=C1COc2ccc(S(=O)(=O)N3CCC(C(=O)NCc4ccco4)CC3)cc2N1`, with 697 s.
To `O=C(Cn1nc2c3cc(-c4ccc(F)cc4)nn3ccn2c1=O)Nc1ccccc1Br` belongs 945 s; to `Cc1ccc(NC(=O)Nc2nc(C(=O)N3CCN(C(=O)c4ccco4)CC3)cs2)cc1`, 704 s; to `CCc1nc2ccc(-c3noc(CNC(=O)c4ccccc4)n3)cc2n1CC`, 637 s.
Molecule `COc1ccc(N2CC(c3noc(-c4ccc(N(C)C)cc4)n3)CC2=O)cc1` (configuration not stated) displayed an RP-LC retention time of 889 s.
`COCCCn1c(=O)c2ccccc2n(Cc2nc(-c3ccc(C)c(C)c3)no2)c1=O` displayed an RP-LC retention time of 1120 s.
To `CCS(=O)(=O)N1CC(=O)N(c2ccc(C)c(C)c2)C(C)(C(=O)NCc2ccccc2)C1` (configuration not stated) belongs 860 s; to `CN(C)c1ccc(C(CNC(=O)CN2C(=O)c3ccccc3C2=O)N2CCCC2)cc1` (configuration not stated), 559 s; to `O=C(Nc1cnc(N2CCOCC2)nc1)c1cccc(Cl)c1`, 793 s.
Then `C=CCn1c(=O)c2ccccc2n(Cc2nc(-c3cc(OC)cc(OC)c3)no2)c1=O`, with 1020 s; and `Cc1c(C(=O)N2CCN(C)CC2)cnn1-c1ccc(-c2nc(C3CC3)no2)cn1`, with 635 s.
In turn, `Cc1c(Cl)cccc1NC(=O)C(C)C1CCN(C(=O)Nc2ccccc2)CC1` (configuration not stated) displayed an RP-LC retention time of 860 s.
To `CCc1ccc(C(=O)Nc2nnc(SCc3nnc(-c4ccccc4)o3)s2)cc1` belongs 1000 s; to `Cc1c(C(=O)C(=O)Nc2ccc(C(N)=O)cc2)c2ccccc2n1C`, 686 s; to `CCCNC(=O)c1cc(C)nc2ccc(F)cc12`, 646 s.
Regarding `CCOc1ccc(CC(=O)NC2(c3nc(CC)no3)CCCCC2)cc1`, the RP-LC retention time was 940 s.
`CCOC(=O)c1noc2ncnc(Nc3cccc(F)c3)c12`: the RP-LC retention time worked out at 616 s.
To `O=C(c1ccc(Cl)cc1)N1CCN(C(=O)c2nnn3c2COC(c2ccccc2)C3)CC1` (configuration not stated) belongs 888 s; to `C/C(=C\c1csc(C)n1)C1C[C@@H]2O[C@]2(C)CCC[C@H](C)[C@H](O)[C@@H](C)C(=O)C(C)(C)[C@@H](O)CC(=O)O1` (some centres not stated), 901 s.
With `CCn1c(C(=O)N2CCCC(C(=O)NCCc3ccc(S(N)(=O)=O)cc3)C2)cc2sccc21` (configuration not stated), the RP-LC retention time is 733 s.
`COC(=O)c1cccc(Nc2ncccc2S(N)(=O)=O)c1` showed an RP-LC retention time of 777 s.
With `Cc1ccc(-c2noc(Cc3nnc(-c4cccc(F)c4)o3)n2)cc1`, the RP-LC retention time was 1070 s.
Turning to `Cc1csc(-c2cc(S(=O)(=O)N3CCCC3)cn2CC(=O)N2CCCC2)n1`, the RP-LC retention time is 803 s.
`Cc1nnc(N2CCCC(C(=O)NCc3ccc(F)cc3)C2)c2nn(-c3ccc(Cl)cc3)c(C)c12` (configuration not stated) had an RP-LC retention time of 771 s.
To `CC(C)c1ccc(S(=O)(=O)Nc2cnc(N3CCNCC3)c(C(=O)NCC3CCCO3)c2)cc1` (configuration not stated) belongs 643 s.
As for `CCCNc1cc(N2CCC(CCC(=O)Nc3ccc4c(c3)OCCO4)CC2)ncn1`, the RP-LC retention time amounted to 682 s.
The molecule `Cc1ccc(N(C)S(=O)(=O)c2cc(-c3[nH]ncc3C(=O)N3CCCC3)oc2C)cc1` registered an RP-LC retention time of 776 s.
In the case of `COc1ccc(-c2ccnn2-c2ccc(SCc3cccc(F)c3)nn2)cc1`, the RP-LC retention time was found to be 1300 s.
Molecule `Cc1cc(C)c2nc(C)cc(C(=O)NCc3ccco3)c2c1` registered an RP-LC retention time of 698 s.
To `CC(=O)N1CCc2cc(N3CC(C(=O)Nc4cccc(Cl)c4C)CC3=O)ccc21` (configuration not stated) belongs 723 s; to `COc1ccc(-c2nc(C3CC(=O)N(c4ccc(Cl)cc4)C3)no2)cc1OC` (configuration not stated), 944 s.
`Cc1ccc(NC(=O)Cn2ncc3c(c2=O)N(CC2CC2)C(=O)CS3)cc1F` had an RP-LC retention time of 928 s.
Turning to `O=C([C@@H]1C[C@H](Oc2cccnc2)CN1C(=O)c1ccc2ncccc2c1)N1CCCC1`, the RP-LC retention time was determined as 544 s.
For `CCOc1ccc(CNC(=O)C2CCN(C(=O)C3Sc4ccccc4NC3=O)CC2)cc1OC` (configuration not stated), the RP-LC retention time turned out to be 712 s.
`COc1ccc(C2Cn3nnc(-c4nc(-c5cccc(C(F)(F)F)c5)no4)c3CO2)cc1` (configuration not stated) yielded an RP-LC retention time of 1270 s.
With `CS(=O)(=O)N1CCC2(CC1)CN(c1cccc(F)c1)C2c1ccccc1` (configuration not stated), the RP-LC retention time was 1150 s.
Then `Cc1nnc2cc(N3CCN(C(=O)c4cccc(N(C)C)c4)CC3)cnn12`, with 496 s.
Then `COc1ccc(CNC(=O)N2CCC(c3cc(N)on3)CC2)cc1`, with 642 s.
Molecule `Cc1nc(-c2ccc3c(c2)CCN3C(=O)c2cccc(F)c2)cs1` had an RP-LC retention time of 992 s.
With `CCOC(=O)c1c(C)oc2ncnc(N3CCC(c4ccccc4)C3)c12` (configuration not stated), the RP-LC retention time amounted to 1100 s.
With `CC1CCC(NC(=O)C2CCN(C(=O)c3ncn4c3COC(c3ccc(Cl)cc3)C4)CC2)CC1` (configuration not stated), the RP-LC retention time is 880 s.
Take `CCc1cccc(NC(=O)C2(C)Oc3cccnc3N(C(C)C)C2=O)c1` (configuration not stated): the RP-LC retention time was determined as 1120 s.
For the molecule `O=C(Cc1ccc(Cl)cc1)Nc1ccsc1-c1nnc(C2CC2)o1`, the RP-LC retention time was 1190 s.
On to `Cc1cccc(NC(=O)c2ccc3nn(CC(=O)Nc4ccc(C)c(F)c4)c(=O)n3c2)c1`, for which the RP-LC retention time came out at 810 s.
Molecule `Cn1cc(C(=O)NC2CCN(Cc3ccccc3)CC2)c2cccnc21` gave an RP-LC retention time of 594 s.
As to `CCc1cc(=O)n(CC(=O)N2CCc3ccccc32)c(N2CCOCC2)n1`, the RP-LC retention time is 734 s.
On to `Cc1ccc(NC(=O)Nc2ccccc2C(N)=O)cc1`, for which the RP-LC retention time was determined as 815 s.

The values are drawn from the METLIN SMRT retention time set (Domingo-Almenara et al. 2019).
